Measured values as given in US20110009497A1, “DRUG-CONTAINING COMPOSITION” (FUJIFILM CORPORATION, priority 2008, published 2011).

Columns and labels:
[1] = target: T1, human vitamin D3 receptor (His-tag fusion protein) (Homo sapiens, UniProt P11473); experiment: Elution by human serum of vitamin D3 bound to His-tag fusion vitamin D3 receptor protein immobilised on Ni-column, HPLC quantification; assay type: binding; settings: carrier His-tag fusion vitamin D3 receptor protein on Ni-column; 20 ml human serum then 10 ml solution A at 0.1 ml/min
T1 construct: made in house; host or cells: Escherichia coli BL21 (DE3) Codon-plus, vector pQE30 Xa (QIAGEN)
T1 sequence (P11473 1-427): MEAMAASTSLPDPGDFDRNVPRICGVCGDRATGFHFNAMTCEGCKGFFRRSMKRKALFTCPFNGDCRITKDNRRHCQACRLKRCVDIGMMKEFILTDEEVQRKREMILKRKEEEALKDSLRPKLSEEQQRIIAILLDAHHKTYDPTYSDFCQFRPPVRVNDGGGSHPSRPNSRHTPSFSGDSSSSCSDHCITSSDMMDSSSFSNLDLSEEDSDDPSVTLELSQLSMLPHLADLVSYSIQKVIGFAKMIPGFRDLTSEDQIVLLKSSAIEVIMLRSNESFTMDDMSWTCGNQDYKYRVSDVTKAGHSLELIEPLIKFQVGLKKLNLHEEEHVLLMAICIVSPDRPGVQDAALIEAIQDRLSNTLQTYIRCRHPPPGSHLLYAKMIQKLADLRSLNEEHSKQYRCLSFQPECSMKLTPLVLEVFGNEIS
Procedure: (§1) For culture, an LB (Luria-Bertani) medium containing 100 μg/ml ampicillin was used. Preculture was carried out with the use of a 300-mL LB medium contained in a 500-mL Erlenmeyer flask at 37° C. Then, for main culture, 30 mL of the preculture solution was added to a 1.5-L LB medium (containing 100 μg/ml ampicillin) contained in a 3-L baffled Erlenmeyer flask and subjected to shake culture at 37° C. so as to result in 0.6 OD600. Thereafter, IPTG was added thereto to a final concentration of 0.5 mM for expression induction, followed by overnight shake culture at 30° C. Subsequently, cells were collected by centrifugation and washed. The obtained bacterial cells were suspended in 200 mM NaCl, 50 mM sodium phosphate buffer, and 10 mM imidazole (pH 8.0), followed by ultrasonic disintegration for 5 minutes and centrifugation at 44,200×g for 30 minutes. Thus, the supernatant was obtained. The obtained supernatant was introduced at a flow rate of 0.1 ml/min into an Ni-column (Ni-NTA His-Bind Resin: Novagen; column volume: 50 ml) that had been preliminarily equilibrated with a solution A (300 mM NaCl, 50 mM sodium phosphate buffer, 20 mM imidazole, pH 8.0) for immobilization. […]

[2] = target: T2, human albumin (His-tag fusion protein) (Homo sapiens, UniProt P02768); experiment: Elution by human serum of vitamin D3 bound to His-tag fusion albumin immobilised on Ni-column, HPLC quantification (Comparative Example 1); assay type: binding; settings: carrier His-tag fusion albumin on Ni-column; human serum 20 ml at 0.1 ml/min, then buffer
T2 construct: made in house; host or cells: Escherichia coli BL21 (DE3) Codon-plus, vector pQE30 Xa (QIAGEN)
T2 sequence (P02768 25-609): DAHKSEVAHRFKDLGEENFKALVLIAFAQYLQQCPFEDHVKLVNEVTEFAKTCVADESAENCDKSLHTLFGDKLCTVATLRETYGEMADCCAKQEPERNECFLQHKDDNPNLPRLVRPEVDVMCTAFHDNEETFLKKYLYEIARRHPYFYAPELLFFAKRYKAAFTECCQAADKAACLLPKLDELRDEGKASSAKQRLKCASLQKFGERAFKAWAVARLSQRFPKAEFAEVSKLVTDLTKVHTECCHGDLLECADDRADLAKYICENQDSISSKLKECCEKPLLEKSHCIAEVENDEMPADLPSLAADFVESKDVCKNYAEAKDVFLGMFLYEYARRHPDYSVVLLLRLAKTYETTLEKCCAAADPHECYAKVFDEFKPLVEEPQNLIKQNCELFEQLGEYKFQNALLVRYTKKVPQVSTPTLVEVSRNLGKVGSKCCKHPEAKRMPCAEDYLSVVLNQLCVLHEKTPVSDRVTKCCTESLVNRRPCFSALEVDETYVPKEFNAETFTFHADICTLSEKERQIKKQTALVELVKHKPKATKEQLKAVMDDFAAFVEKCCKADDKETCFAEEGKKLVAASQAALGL
Procedure: as §1, with “A human albumin sequence was expressed with the use of Escherichia coli BL21 (DE3) Codon-plus as a His-tag fusion protein (using a vector (pQE30 Xa; QIAGEN)). For” for “For”

[3] = tested on: osteoporosis model rats (ovariectomized aged rats); experiment: Bone regeneration in osteoporosis model rats (ovariectomized aged rats); assay type: in vivo, rat; settings: calcitriol dissolved with vitamin D3 receptor carrier protein; i.v. 3 times per week, 0.3 μg/kg; four months later
Procedure: The resultant was allowed to stand still overnight at 22° C. and eluted with a solution A as in the case of Example 1. The eluate was introduced into a benzamidine column (GE Healthcare Bioscience; HiTrap Benzamidine FF (high sub) column) in a general purification step, during which a high-purity vitamin D3 receptor protein was purified. Accordingly, a drug carrier was obtained.
The obtained liquid was administered 3 times per week via intravenous injection to osteoporosis model rats (ovariectomized aged rats) such that the calcitriol concentration was maintained at 0.3 μg/kg.

| Compound | amount of vitamin D3 eluted from the column, of the total amount of bound vitamin [1] | amount of vitamin D3 eluted from the column, of the total amount of bound vitamin [2] | induction of bone regeneration [3] |
| --- | --- | --- | --- |
| C=C1CC[C@H](O)C/C1=C/C=C1\CCC[C@]2(C)[C@@H]([C@H](C)CCCC(C)C)CC[C@@H]12 [Vitamin D3, vitamin D3] | approximately 5% | approximately 70% | – |
| C=C1/C(=C\C=C2/CCC[C@]3(C)[C@@H]([C@H](C)CCCC(C)(C)O)CC[C@@H]23)C[C@@H](O)C[C@@H]1O [calcitriol, 1α,25-dihydroxyvitamin D3] | – | – | induction of bone regeneration in the rats was confirmed |
